From patent US6965035B1, “Compacted forms of halogenated hydantoins” (priority 2002, dated 2005)

Legend:
Type in all cases: physicochemical
[1] = Dissolution of granules or tablets in swimming pool skimmer basket under recirculated pool water
Excerpt: A swimming pool skimmer basket was divided into two halves by means of a simple plastic partition placed across the basket diameter. One half of the basket had 50 grams of pure (wax-free) DBDMH granules placed in it. In the other half of the skimmer basket was placed 50 grams of DBDMH/1 wt % MPP-611 wax granules. […] The basket, containing both sets of granules, was introduced to the skimmer of an above-ground pool. Swimming pool water was pumped past the granules in the skimmer basket by means of the pool recirculation pump. The flow rate was around 30 gallons per minute (gpm) and the water temperature was 60° F. (15.5° C.). After 6 hours, the pump was turned off and the skimmer basket containing the partially-dissolved granules was removed. The granules were removed from their respective halves of the skimmer basket and placed in crystallizing dishes to dry overnight. Each set of granules was reweighed. The weight of the undissolved portion was subtracted from the initial weight, and the amount dissolved (the difference) was expressed in terms of % dissolved (the relative dissolution rate). Table 5 lists the relative amount dissolved for both sets of granules. The procedures described in Example 4 were repeated using pure (wax-free) DBDMH granules and DBDMH/2 wt % MPP-611 wax granules. The water temperature was 66° F. (19° C.). Table 5 lists the relative amount dissolved for both sets of granules. The skimmer basket setup described in Example 4 was used. In one half of the basket, tablets of DBDMH/3 wt % MPP-611 wax (5×24 g; total weight, 120 g; each tablet is 1 inch in diameter) were placed an equal distance apart from each other. In the other half of the basket, tablets of pure (wax-free) 1,3-bromochloro-5,5-dimethylhydantoin (BCDMH; 5×20 g; total weight, 100 g) were similarly arranged. Both sets of tablets were one inch in diameter, so the effective surface area exposed was approximately the same for each set of tablets. The skimmer basket containing the tablets was placed into the skimmer of an above-ground swimming pool. Pool water was pumped past the tablets in the skimmer basket by means of the pool recirculation pump. The flow rate was around 30 gpm, the water temperature was 82.1° F. (27.8° C.), and water was recirculated for 16 hours. The tablets were dried and re-weighed. The weight of the undissolved portion was subtracted from the initial weight, and the amount dissolved (the difference) was expressed in terms of % dissolved (the relative dissolution rate). The amount of product dissolved was 75.5 g for the BCDMH tablets and 13.4 g for the DBDMH/3 wt % MPP-611 wax tablets. The BCDMH tablets dissolved at a rate 5.6 times faster (based on weight dissolved) than the DBDMH/3 wt % MPP-611 wax tablets. Based on the respective solubility of wax-free DBDMH and BCDMH powders, a relative dissolution factor of about 2 would have been expected (with the BCDMH dissolving faster).

[2] = Peak load tolerance test of granules (Sintech 1/S compression apparatus); conditions: 3.5–5 mesh cut of granules; average of ten runs; standard deviation in parentheses
Description: To minimize size effects, a 3.5–5 mesh cut of the granulated material was used in this experiment. Peak load tests were performed on DBDMH granules without wax, with 1 wt % wax, and with 2 wt % wax. The wax in both instances was micronized polyethylene wax (MPP-611). Granules of approximately the same size were selected by visual inspection; measurements of the thickness of the granules were not made because of the very irregular shapes of the granules. Peak load tolerance tests were performed utilizing a Sintech® 1/S compression apparatus (MTS Systems Corporation, Edenprairie, Minn.) equipped with Testworks software. The apparatus included a horizontal circular-shaped load cell interfaced with a computer, a digital micrometer also interfaced with the computer, and a vertical screw-driven piston disposed above the load cell and adapted to apply a downward force perpendicular to the load cell. Each granule was placed on its edge on the load cell with the piston in contact with at least a part of the upper edge of the granule. The piston often could not contact the entire upper edge of the granule due the irregular morphology of the granule. […] At the same time, the load cell continuously measured the downward force being applied to the granule, and the input of such measurements was transmitted to the computer. […]

[3] = Specific surface area of granules by nitrogen adsorption BET technique; conditions: 3.5–5 mesh granules, material from recycle compaction (Runs 1–3)
Description: To minimize size effects, a 3.5–5 mesh cut of the granulated material was used in this experiment. The material used in Runs 1–3 were from recycle compaction, and the material used in Run 4 was from first-run compaction. The surface area of the granules was determined by the well-known nitrogen adsorption BET technique. The BET technique consists of (1) removing adsorbed gases from the sample with heat and vacuum, (2) adsorbing a mono-layer of nitrogen on the surface at liquid nitrogen temperature, (3) measuring the amount of adsorbed nitrogen, and (4) calculating the total surface area of the sample from an assumed cross-sectional area of nitrogen molecules. The total surface area was divided by the sample weight to yield the specific surface area. Specific surface area is defined as the exposed surface area of 1 gram of the sample tested. A Coulter Model 3100 instrument was used.

Amount dissolved ([1]; 1 inch tablets, about 30 gpm, water 82.1° F. (27.8° C.), 16 hours (text Example 6)) | Amount of product dissolved ([1]; tablets, 5×20 g BCDMH or 5×24 g DBDMH/wax, about 30 gpm, 82.1° F., 16 hours) | Dissolution rate relative to DBDMH/3 wt % MPP-611 wax tablets (based on weight dissolved) ([1]; tablets, 82.1° F., 16 hours) | Surface Area [3] | Amount dissolved ([1]; 50 g granules >8 U.S. mesh, about 30 gpm, water 60° F. (15.5° C.), 6 hours (text Example 4)) | Amount dissolved ([1]; 50 g granules, about 30 gpm, water 66° F. (19° C.), 6 hours (text Example 5)) | Compound | Average peak load [2]
75.5% | 75.5 g | 5.6 times faster |  |  |  | CC1(C)C(=O)N(Cl)C(=O)N1Br [BCDMH tablets (no wax), 1,3-bromochloro-5,5-dimethylhydantoin] | 
 |  |  | 5.1 m^2/g | 44% | 60% | CC1(C)C(=O)N(Br)C(=O)N1Br [DBDMH, wax-free, 1,3-dibromo-5,5-dimethylhydantoin] | 11.7 (3.4) lb.
